In US20260000698A1 (priority 2022, published 2026):
pIC50: −log10 of the molar value. Marks after values point to notes of the source that are not given here.

Experiments:
[1] = target: T1, EZH1 (Homo sapiens, UniProt Q92800); assay: Human MTase screening: EZH1; assay type: biochemical
T1 construct: purchased BPS Bioscience
Protocol: (§1) Assay conditions. The human methyltransferase inhibition assays were performed at BPS Bioscience (San Diego, CA, USA). All of the enzymatic reactions were conducted in duplicate at room temperature for 60-960 min in a 50 μL mixture containing proper methyltransferase assay buffer, S-adenosylmethionine (SAM), enzyme, and the test compound. These 50 μL reactions were carried out in wells of a substrate pre-coated plate. First, enzyme and inhibitor were added to assay wells and preincubated for 30 min at room temperature, then SAM was added to start the reaction. Final DMSO concentration was 1% in all reactions.
(§2) After enzymatic reactions, the reaction mixtures were discarded and each of the wells was washed three times with TBST buffer, and slowly shaken with Blocking Buffer for 10 min. Wells were emptied, and 100 μL of diluted primary antibody was added. The plate was then slowly shaken for 60 minutes at room temperature. […] Immediately, the luminescence of the samples was measured in a BioTek Synergy™ 2 (Winooski, VT, USA) microplate reader using Gen5 software.
(§3) Data analysis. […] The luminescence data/alpha counts were analyzed and compared. […] The percent activity in the presence of each compound was calculated according to the following equation: % activity=(C−C0)/(Ce−C0), where C=the luminescence/alpha counts in the presence of the compound.

[2] = target: SARS-CoV-2 Nsp14 MTase (Severe acute respiratory syndrome coronavirus 2, UniProt P0DTD1); assay: biochemical; assay type: biochemical
[3] = Parallel artificial membrane permeability assay (PAMPA); assay type: in vitro ADME
Protocol: Parallel artificial membrane permeability assay (PAMPA).^5 The membrane permeability of selected compounds was evaluated using the Corning® BioCoat™ Pre-coated PAMPA Plate System (Corning 353015; Glendale, AZ, USA). The pre-coated plate assembly, which was stored at −20° C., was taken to thaw for 30 min at room temperature. The permeability assay was carried out in accordance with the manufacturer's protocol. Briefly, the 96-well filter plate, pre-coated with lipids, was used as the permeation acceptor and a matching 96 well receiver plate was used as the permeation donor. Compound solutions were prepared by diluting the 10 mmol/L DMSO stock solutions with 10% methanol in DPBS to a final concentration of […]. The compound solutions were added to the wells (300 μL/well) of the receiver plate and DPBS with 10% methanol was added to the wells (200 μL/well) of the pre-coated filter plate. The filter plate was then coupled with the receiver plate and the plate assembly was incubated at 25° C. without agitation for 5 h. At the end of the incubation, the plate was separated and the final concentrations of compounds in both donor wells and acceptor wells were analyzed using LC-MS/MS. Permeability of a compound was calculated using the Eq. (1):
where A=filter area (0.3 cm^2), VD=donor well volume (0.3 mL), VA=acceptor well volume (0.2 mL), t=incubation time (seconds), CA(t)=compound concentration in acceptor well at time t, CD(t)=compound concentration in donor well at time t, and Ceq was calculated using the Eq. (2): […]
A cutoff criterion of Pe value at […] was used to classify the compounds into high and low permeability according to the literature report of this PAMPA plate system^1.

[4] = Plasma stability assay, human plasma; assay type: in vitro ADME
Protocol: Plasma stability assay. The plasma stability assay was performed in triplicate by incubating each selected compound (1 μmol/L final concentration) in normal mouse (CD-1) or human plasma (Innovative Research; Novi, MI, USA) diluted to 80% with 0.1 mol/L potassium phosphate buffer (pH 7.4) at 37° C. At 0, 1, 3, 6, and 24 h, a 50 μL aliquot of the plasma mixture was taken and quenched with 150 μL of acetonitrile containing 0.1% formic acid. The samples were then vortexed and centrifuged at 15,000 rpm (Eppendorf centrifuge 5424R; Enfield, CT, USA) for 5 min. The supernatants were collected and analyzed by LC-MS/MS to determine the in vitro plasma half-life (t1/2).

[5] = Liver S9 stability assay, human liver S9; details: n = 2, mean±SD
[6] = Liver S9 stability assay, mouse liver S9; details: n = 2, mean±SD
[7] = target: T2, PRMT1 (Homo sapiens, UniProt Q99873); assay: Human MTase screening: PRMT1; assay type: biochemical
T2 construct: purchased BPS Bioscience
T2 sequence (Q99873 whole entry): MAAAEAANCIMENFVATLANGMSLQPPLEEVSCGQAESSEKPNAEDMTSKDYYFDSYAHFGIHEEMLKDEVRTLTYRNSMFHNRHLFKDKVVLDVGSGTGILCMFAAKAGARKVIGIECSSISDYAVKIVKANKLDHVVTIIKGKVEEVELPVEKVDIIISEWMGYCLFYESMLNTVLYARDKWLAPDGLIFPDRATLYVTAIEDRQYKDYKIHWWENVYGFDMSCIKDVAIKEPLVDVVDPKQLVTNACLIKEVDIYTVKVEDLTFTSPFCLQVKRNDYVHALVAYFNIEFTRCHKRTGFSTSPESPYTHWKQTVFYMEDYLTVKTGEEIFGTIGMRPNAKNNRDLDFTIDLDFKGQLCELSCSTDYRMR
Protocol: as §1, §2, §3

[8] = tested on: A549/ACE2/TMPRSS2 cells; assay: in vitro; details: cell viability at 50 μM
Protocol: Percentage of infected cells was determined by dividing the number of infected cells by the total number of cells per well. The percentage of infected cells and total number of cells for each treatment was plotted into GraphPad prism (GraphPad Software; San Diego, CA, USA) to perform a non-linear regression analysis, generate infectious dose-response curves and to calculate EC50 and CC50 values.
Viability assays for the non-infected A549/ACE2/TMPRSS2 cells were performed using the 3-(4,5-dimethylthiazol-2-yl)-5-(3-carboxymethoxyphenyl)-2-(4-sulfophenyl)-2H-tetrazolium (MTS)-based tetrazolium reduction CellTiter 96 Aqueous Non-Radioactive cell proliferation assay (Promega G5430; Madison, WI) as described. Assays were conducted using parallel plates to those used in the immunofluorescence assay. Experimental details (cell line, number of cells seeded and incubation time) corresponded to those used in the immunofluorescence assay above. The data obtained were used to calculate the CC50 value using GraphPad Prism software.

[9] = target: T3, MLL1 Complex (Homo sapiens, UniProt Q03164); assay: Human MTase screening: MLL1 Complex; assay type: biochemical
T3 construct: purchased BPS Bioscience
Protocol: as §1, §2, §3

[10] = target: T4, DNMT1 (Homo sapiens, UniProt P26358); assay: Human MTase screening: DNMT1; assay type: biochemical
T4 construct: purchased BPS Bioscience
T4 sequence (P26358 whole entry): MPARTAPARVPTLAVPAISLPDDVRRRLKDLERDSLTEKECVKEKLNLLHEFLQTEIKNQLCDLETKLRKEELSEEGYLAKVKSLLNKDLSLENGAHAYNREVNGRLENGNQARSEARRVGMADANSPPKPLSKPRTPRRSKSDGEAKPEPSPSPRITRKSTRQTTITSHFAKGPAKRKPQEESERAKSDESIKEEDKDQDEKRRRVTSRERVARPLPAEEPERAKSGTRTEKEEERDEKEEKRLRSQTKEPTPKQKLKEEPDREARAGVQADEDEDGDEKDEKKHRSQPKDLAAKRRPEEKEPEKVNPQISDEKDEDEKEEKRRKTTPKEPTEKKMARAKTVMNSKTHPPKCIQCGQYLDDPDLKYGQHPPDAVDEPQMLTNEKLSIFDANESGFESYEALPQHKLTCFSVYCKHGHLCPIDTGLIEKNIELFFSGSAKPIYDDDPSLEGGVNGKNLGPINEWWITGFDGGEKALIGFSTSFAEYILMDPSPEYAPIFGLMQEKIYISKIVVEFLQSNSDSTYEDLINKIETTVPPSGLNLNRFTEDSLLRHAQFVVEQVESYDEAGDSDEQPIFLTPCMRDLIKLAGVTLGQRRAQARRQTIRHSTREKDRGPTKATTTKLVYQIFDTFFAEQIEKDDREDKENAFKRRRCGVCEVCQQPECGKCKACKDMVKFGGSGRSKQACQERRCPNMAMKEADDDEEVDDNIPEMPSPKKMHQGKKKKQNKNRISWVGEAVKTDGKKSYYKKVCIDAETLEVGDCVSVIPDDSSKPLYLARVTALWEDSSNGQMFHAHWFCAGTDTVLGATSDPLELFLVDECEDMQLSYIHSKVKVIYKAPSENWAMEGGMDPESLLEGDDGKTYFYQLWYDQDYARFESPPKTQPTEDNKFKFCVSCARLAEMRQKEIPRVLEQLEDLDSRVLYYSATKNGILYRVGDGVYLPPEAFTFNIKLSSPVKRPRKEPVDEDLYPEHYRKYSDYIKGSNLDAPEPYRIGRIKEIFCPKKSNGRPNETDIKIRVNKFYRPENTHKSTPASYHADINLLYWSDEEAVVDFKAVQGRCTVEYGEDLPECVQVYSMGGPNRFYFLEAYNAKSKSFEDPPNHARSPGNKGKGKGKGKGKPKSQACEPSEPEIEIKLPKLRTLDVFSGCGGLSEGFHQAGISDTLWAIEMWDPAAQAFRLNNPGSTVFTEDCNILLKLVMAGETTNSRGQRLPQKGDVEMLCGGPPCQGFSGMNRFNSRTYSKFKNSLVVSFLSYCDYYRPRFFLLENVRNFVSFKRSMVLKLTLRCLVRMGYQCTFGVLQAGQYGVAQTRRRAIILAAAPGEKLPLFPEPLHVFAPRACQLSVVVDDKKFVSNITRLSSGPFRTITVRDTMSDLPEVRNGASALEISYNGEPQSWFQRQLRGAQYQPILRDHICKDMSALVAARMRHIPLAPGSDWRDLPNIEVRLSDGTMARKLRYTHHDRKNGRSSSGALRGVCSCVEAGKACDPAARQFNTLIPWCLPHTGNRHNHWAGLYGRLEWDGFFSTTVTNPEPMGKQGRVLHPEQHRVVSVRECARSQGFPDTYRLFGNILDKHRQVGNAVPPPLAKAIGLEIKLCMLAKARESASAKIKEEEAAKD
Protocol: as §1, §2, §3

[11] = target: T5, PRMT3 (Homo sapiens, UniProt O60678); assay: Human MTase screening: PRMT3; assay type: biochemical
T5 construct: purchased BPS Bioscience
T5 sequence (O60678 whole entry): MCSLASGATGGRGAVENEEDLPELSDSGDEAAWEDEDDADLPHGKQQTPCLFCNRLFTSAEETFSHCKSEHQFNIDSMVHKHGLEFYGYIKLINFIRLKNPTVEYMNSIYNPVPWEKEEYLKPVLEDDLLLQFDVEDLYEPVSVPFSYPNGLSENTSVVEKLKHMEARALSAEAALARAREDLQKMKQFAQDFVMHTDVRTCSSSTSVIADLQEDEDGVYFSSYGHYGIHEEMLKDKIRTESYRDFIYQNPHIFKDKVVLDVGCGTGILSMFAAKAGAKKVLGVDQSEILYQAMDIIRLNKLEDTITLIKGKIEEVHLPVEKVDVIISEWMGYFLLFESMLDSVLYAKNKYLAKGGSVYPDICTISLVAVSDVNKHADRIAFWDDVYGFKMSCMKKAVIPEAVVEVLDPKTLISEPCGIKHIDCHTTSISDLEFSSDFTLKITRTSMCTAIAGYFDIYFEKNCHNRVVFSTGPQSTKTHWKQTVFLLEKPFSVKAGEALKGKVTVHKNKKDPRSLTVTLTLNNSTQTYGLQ
Protocol: as §1, §2, §3

[12] = target: T6, DOT1L (Homo sapiens, UniProt Q8TEK3); assay: Human MTase screening: DOT1L; assay type: biochemical
T6 construct: purchased BPS Bioscience
T6 sequence (Q8TEK3 whole entry): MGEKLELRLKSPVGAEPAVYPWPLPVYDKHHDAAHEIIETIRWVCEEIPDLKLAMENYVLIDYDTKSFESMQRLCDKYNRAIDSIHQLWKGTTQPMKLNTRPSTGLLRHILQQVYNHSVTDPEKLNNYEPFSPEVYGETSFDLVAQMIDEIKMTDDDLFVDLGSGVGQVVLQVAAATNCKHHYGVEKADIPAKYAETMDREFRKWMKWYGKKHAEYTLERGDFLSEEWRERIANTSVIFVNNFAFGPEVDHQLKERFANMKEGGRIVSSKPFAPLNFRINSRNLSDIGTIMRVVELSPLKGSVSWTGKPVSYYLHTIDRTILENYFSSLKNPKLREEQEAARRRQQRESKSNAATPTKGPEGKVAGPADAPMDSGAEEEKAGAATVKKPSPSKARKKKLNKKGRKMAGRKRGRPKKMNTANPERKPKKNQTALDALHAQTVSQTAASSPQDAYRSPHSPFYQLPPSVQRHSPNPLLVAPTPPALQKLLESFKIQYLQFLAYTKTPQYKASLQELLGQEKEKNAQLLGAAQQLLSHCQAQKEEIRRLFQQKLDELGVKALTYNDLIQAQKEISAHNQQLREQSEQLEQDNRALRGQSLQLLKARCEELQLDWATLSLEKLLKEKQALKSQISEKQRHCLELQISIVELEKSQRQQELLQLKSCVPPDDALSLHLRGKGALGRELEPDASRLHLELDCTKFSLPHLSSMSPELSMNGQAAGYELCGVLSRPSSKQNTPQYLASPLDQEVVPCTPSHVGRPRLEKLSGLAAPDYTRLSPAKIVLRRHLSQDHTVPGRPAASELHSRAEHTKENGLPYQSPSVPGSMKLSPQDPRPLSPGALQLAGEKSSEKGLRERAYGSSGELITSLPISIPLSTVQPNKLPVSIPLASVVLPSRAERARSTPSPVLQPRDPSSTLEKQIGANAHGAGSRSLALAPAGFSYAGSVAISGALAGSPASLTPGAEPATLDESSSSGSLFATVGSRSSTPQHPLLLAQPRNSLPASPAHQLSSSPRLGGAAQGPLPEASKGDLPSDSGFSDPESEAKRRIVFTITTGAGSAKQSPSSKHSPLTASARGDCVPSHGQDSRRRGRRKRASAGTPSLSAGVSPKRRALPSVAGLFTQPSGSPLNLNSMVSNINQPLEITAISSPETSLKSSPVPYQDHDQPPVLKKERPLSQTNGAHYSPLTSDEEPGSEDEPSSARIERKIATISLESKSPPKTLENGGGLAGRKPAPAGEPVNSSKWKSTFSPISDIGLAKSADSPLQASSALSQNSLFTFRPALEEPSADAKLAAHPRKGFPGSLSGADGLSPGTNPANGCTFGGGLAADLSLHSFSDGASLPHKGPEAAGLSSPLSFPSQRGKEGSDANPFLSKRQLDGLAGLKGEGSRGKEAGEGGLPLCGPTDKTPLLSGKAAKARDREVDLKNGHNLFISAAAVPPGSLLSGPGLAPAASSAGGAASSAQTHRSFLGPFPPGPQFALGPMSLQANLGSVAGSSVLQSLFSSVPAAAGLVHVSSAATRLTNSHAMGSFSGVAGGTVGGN
Protocol: as §1, §2, §3

## Nc1ncnc2c1ncn2[C@@H]1O[C@H](CNS(=O)(=O)c2ccc3ccccc3c2)[C@@H](O)[C@H]1O [Compound 3, N-(((2R,3S,4R,5R)-5-(6-Amino-9H-purin-9-yl)-3,4-dihydroxytetrahydrofuran-2-yl)methyl)naphthalene-2-sulfonamide]
[1]
  inhibition at 10 µM: 2%
[2]; LC-MS/MS assay, read-out: IC50
  pIC50: 7.21
[2]; MTase IC50 vs compound 1
  fold more active than compound 1: > 150 fold
[3]; PAMPA
  passive diffusion rate in PAMPA: equally low
[3]; n = 6, mean±SD, 25° C., 5 h
  PAMPA Permeability Pe: 0.2 ± 0.1 10^−6 cm/s
[4]; human plasma, 37° C., n = 3
  Plasma Stability t1/2, Human: >24^d h
[4]; human, plasma
  stability in human plasma: remarkably stable
[5]; cofactor NADPH
  Human Liver S9 Stability t1/2, Phase I: 11.2 ± 2.27 h
[5]; cofactor UDPGA
  Human Liver S9 Stability t1/2, Phase II: >45^e min
[6]; cofactor NADPH
  Mouse Liver S9 Stability t1/2, Phase I: 4.55 ± 0.383 h
[6]; cofactor UDPGA
  Mouse Liver S9 Stability t1/2, Phase II: >45^e min
[7]
  inhibition at 10 µM: 5%
[8]
  CC50: NT (nontoxic): NT^b (NT, nontoxic, >95% cell viability at 50 μM;)
[9]
  inhibition at 10 µM: 1%
[10]
  inhibition at 10 µM: 5%
[11]
  inhibition at 10 µM: 0%
[12]
  inhibition at 10 µM: 10%
